Data published in patent publication US12708627B2, “Combination therapy for VAV3 cancer” (Children's Hospital Medical Center, priority 2021, dated 2026).
Entries after “also recorded” stand apart in the source; their conditions may differ. Read-outs that look alike come from different tables or passages of the source.

Columns and labels:
[1] = tested on: p190- and p210-BCR-ABL1 expressing Ba/F3 cells; test: Survival of BCR-ABL1 expressing Ba/F3 cells, trypan blue exclusion; format: cell-based, murine; conditions: for EC50: BaF3
Text: Ba/F3 cells are bone marrow-derived, IL-3 dependent, murine pro-B cells widely used in studying the mechanism of leukemia initiation and progression and targeted therapy discovery^1. NALM-1 are human lymphoblastic cells that express p190-BCR-ABL1 but not Ikaros (IKZF1)^2. Applicant treated Ba/F3 cells transduced with retrovirus encoding either p190- or p210-BCR-ABL1 or Mieg3 empty vector^3 control as before.
MDA-MB-231 cells were maintained in IMEM (Invitrogen) supplemented with 10% FBS, 1% penicillin/streptomycin, and 1% amphotericin B. Ba/F3 cells were cultured in RPMI (GIBCO) supplemented with 10% FBS and IL-3 (10 ng/ml), NALM-1 cells were maintained in RPMI supplemented with 15% FBS. HEK293T cells were maintained with DMEM supplemented with 10% FBS and 1% penicillin/streptomycin. All cell lines were cultured at 37° C. in a 5% CO2 humidified incubator. Cell viability was assessed by trypan blue exclusion assay as previously described^4. Cytokines were from Peprotech.

[2] = tested on: RhoA; test: Active RhoA pull-down with GST-Rhotekin in p190-BCR-ABL1 Ba/F3 cells; format: cell-based; conditions: 3 μM
Text: (§1) GAPDH was used as loading control.

[3] = tested on: pPAK1/2 (T423/T402) and pBAD (S136) in p190-BCR-ABL1 expressing Ba/F3 cells; test: Kinetics of PAK1/2 and BAD dephosphorylation by immunoblot; format: cell-based, murine; conditions: 3 μM, early time points
Description: as §1
To determine the kinetics of IODVA1-promoted effector dephosphorylation, Applicant focused on the activity of the RAC pro-survival effectors PAK1/2 and the RAC pro-apoptotic member of the Bcl-2 family, BAD, a mediator of aggressive BCR-ABL1-expressing leukemia^10,11. […] The observed difference in deactivation times, i.e. 15 vs. 5 min, is likely due to the difference and sensitivity of the techniques used to detect the activation state of these proteins, e.g. pull-down followed by immunoblotting vs. direct immunoblotting.

[4] = tested on: VAV3−/− p190-BCR-ABL1 leukemic cells expressing full-length VAV3; test: VAV3 rescue: cell cycle and colony formation, full-length VAV3; format: cell-based, murine; conditions: 10 μM
Text: (§2) (FIG. 5A) Schematic of domain architecture of full-length, ΔCH and GEF-mutant VAV3; calponin-homology (CH), acidic region (Ac), Dbl-homology (DH), pleckstrin-homology (PH), zinc finger (ZF), SRC-homology 2 and 3 (SH2/SH3). Black circle and star indicate Y173 and N369, respectively.
(§3) Re-introducing full-length or ΔCH VAV3 results in similar number of colonies as with wild-type BM leukemic cells (black bars, mean of 200.3 and 183.3 vs 188.3, respectively), a 3-fold increase from VAV3^−/− leukemic cells expressing the empty vector (mean=64.3 colonies).
(§4) For VAV3 rescue experiments, low density bone marrow cells from wild-type (VAV3^+/+) or VAV3^−/− mice were transduced with bicistronic retroviral vector encoding p190 BCR-ABL1-IRES-YFP and sorted for YFP^+ 48 h post-transduction. Cells were then transduced with lentiviral particles encoding either empty vector, full-length WT or mutant VAV3 (pCDH1-MCS1-EF1-copGFP). […] Cell cycle was analyzed at 18 h post BrdU incorporation.

[5] = tested on: VAV3−/− p190-BCR-ABL1 leukemic cells expressing ΔCH VAV3; test: VAV3 rescue: cell cycle and colony formation, ΔCH mutant; format: cell-based, murine; conditions: up to 10 μM
Text: as §2, §3, §4

[6] = tested on: VAV3−/− p190-BCR-ABL1 leukemic cells expressing N369A VAV3; test: VAV3 rescue: cell cycle and colony formation, N369A GEF-deficient mutant; format: cell-based, murine; conditions: up to 10 μM
Text: as §2, §3, §4

[7] = tested on: major wild-type kinases including ABL1 and SRC-like kinases; conditions: cited from earlier work
[8] = tested on: wild-type p190-BCR-ABL1 leukemia; test: Wild-type (VAV3+/+) p190-BCR-ABL1 leukemic mice, osmotic pump; conditions: for leukemic progenitors in peripheral blood: vehicle 23.8%

SMILES: OC1(c2ccccc2)NC(=Nc2nc3ccccc3[nH]2)N=C1c1ccccn1 (centres unmarked) [IODVA1]
- cell death after washout ([1]; 1 μM for 24 h then washed, by day 3): all cells were dead
- cytotoxicity at 3 µM ([1]; Mus musculus, BaF3, 24 h, 3 μM, day 1, SEM, N=9, read-out: reduction of viability): 75 ± 4%
- EC50 ([1]; Mus musculus, grown in the presence of IL-3, 72-hour time point, read-out: half maximal effective concentration (EC50), cell survival): 380 nM
- EC50 ([1]; Mus musculus, p190-BCR-ABL1 Ba/F3 cells, IL-3 withdrawal, read-out: EC50, cell survival): 9 nM
- effect on RhoA activation [2]: not at all; also recorded: no effect
- BAD S136 phosphorylation [3]: decreased BAD S136 phosphorylation beyond the 15 min time point
- phosphorylation of PAK1/2 T423/T402 [3]: decreases sharply beyond the 5 min treatment time
- increase in apoptosis ([4]; 18 h, p=0.008): 5.8 fold
- decrease in cells in the S-phase ([4]; 18 h, p=0.02): 15%
- number of colonies ([4]; vehicle mean 200.3): 75 colonies
- sensitivity to IODVA1, cell cycle and colony formation [5]: did not re-sensitize; also recorded: less sensitive
- sensitivity to IODVA1, cell cycle and colony formation [6]: did not re-sensitize; also recorded: insensitive
- inhibitory activity in vitro against kinases [7]: no inhibitory activity
- survival ([8]; IODVA1 1 mM, one pump, treatment day 21 to day 35): 60 days
- leukemic progenitors in peripheral blood ([8]; after one week of treatment): 5%
- leukemic progenitors in peripheral blood ([8]; after two weeks of treatment): 2%
- survival after treatment has ended ([8]; treatment ended by day 35): 25 days
